The experiment concerns the target T1, human MuSK (Homo sapiens, UniProt O15146).
T1 construct: DNA corresponding to the extracellular portion (amino acids 1-493) was amplified by a PCR method; made in house; host or cells: Expi293F cells
T1 sequence (O15146 24-493): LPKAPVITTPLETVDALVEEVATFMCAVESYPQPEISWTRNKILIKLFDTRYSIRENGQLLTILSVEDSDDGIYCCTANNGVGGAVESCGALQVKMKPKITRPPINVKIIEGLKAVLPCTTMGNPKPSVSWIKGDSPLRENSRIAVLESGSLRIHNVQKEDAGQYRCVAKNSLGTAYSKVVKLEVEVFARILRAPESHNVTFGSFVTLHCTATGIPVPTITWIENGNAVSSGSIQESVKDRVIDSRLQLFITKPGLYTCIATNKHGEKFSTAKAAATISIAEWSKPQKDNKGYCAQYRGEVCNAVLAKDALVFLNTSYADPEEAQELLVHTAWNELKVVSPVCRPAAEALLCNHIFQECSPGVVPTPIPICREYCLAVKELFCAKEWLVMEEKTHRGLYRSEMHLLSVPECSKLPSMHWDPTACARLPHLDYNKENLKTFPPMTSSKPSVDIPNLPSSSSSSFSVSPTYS
Briefly: SPR binding activity test to human MuSK (Biacore). The note with it: Table 5, read-out: Binding activity (KD) (nM) Human. The essentials: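 Extracellular domain (aa 1-493) of human MuSK, expressed as an Fc fusion in Expi293F cells, was captured on Protein G or A chips. Analytes were injected as concentration series in phosphate-buffered saline with 0.05% Tween 20, plus 0.1% DMSO for peptides. ka, kd and KD were obtained from 1:1 binding fits.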
A general note: Surface plasmon resonance follows binding to a sensor surface in real time, without labels.

Bridge positions count the residues as written; N and C are the ends. Square brackets hold non-standard residues; d marks the D form. Peptide text beside a SMILES is read from it. I, II: the chains in the order shown. * marks the point of attachment. Palmitoyl = CCCCCCCCCCCCCCCC(=O)*; PEG3 = NCCOCCOCCOCCC(=O)O; Dap = NC[C@H](N)C(=O)O

Take `CCCCCCCCCCCCCCCC(=O)NCCCC[C@H](NC(=O)[C@H](CNC(=O)CCOCCOCCOCCNC(=O)CNC(=O)[C@@H]1CSCC(=O)N[C@H](Cc2ccc(O)cc2)C(=O)N2CCC[C@H]2C(=O)N[C@@H](CO)C(=O)N[C@@H](Cc2ccc(O)cc2)C(=O)N[C@@H](Cc2c[nH]cn2)C(=O)N[C@@H]([C@@H](C)O)C(=O)N[C@@H](CC(N)=O)C(=O)N[C@@H](C(C)C)C(=O)N[C@@H](C(C)C)C(=O)N[C@@H](C)C(=O)N[C@@H](CO)C(=O)N[C@@H](CC(C)C)C(=O)N[C@@H](CCCCN)C(=O)N[C@@H](CCCNC(=N)N)C(=O)N1)NC(=O)CCOCCOCCOCCNC(=O)CNC(=O)[C@@H]1CSCC(=O)N[C@H](Cc2ccc(O)cc2)C(=O)N2CCC[C@H]2C(=O)N[C@@H](CO)C(=O)N[C@@H](Cc2ccc(O)cc2)C(=O)N[C@@H](Cc2c[nH]cn2)C(=O)N[C@@H]([C@@H](C)O)C(=O)N[C@@H](CC(N)=O)C(=O)N[C@@H](C(C)C)C(=O)N[C@@H](C(C)C)C(=O)N[C@@H](C)C(=O)N[C@@H](CO)C(=O)N[C@@H](CC(C)C)C(=O)N[C@@H](CCCCN)C(=O)N[C@@H](CCCNC(=N)N)C(=O)N1)C(N)=O` [MuSK7-pal] (I: {CH2CO}-[dY]PSYHTNVVASLKRCG[PEG3][Dap]K(Palmitoyl)-NH2 / II: {CH2CO}-[dY]PSYHTNVVASLKRCG[PEG3]; amide I:18-II:C; thioether I:N-I:15, II:N-II:15): the Kd is 0.9 nM.

Broadly, the Kd is the constant that tells how readily two partners part at equilibrium.

(Values after EP4722228A1, “NEW COMPOUND TARGETING MUSK AND USE THEREOF” (The University of Tokyo, priority 2023, dated 2024).)
